Laboratory results as given in patent US10435399B2, “HDAC6 inhibitory heterocyclic compound” (TAKEDA PHARMACEUTICAL COMPANY LIMITED, priority 2017, dated 2019).

target: T1, HDAC6 enzyme (Homo sapiens, UniProt Q9UBN7); test: HDAC6 enzyme inhibitory activity (HDAC-Glo I/II Assay kit); type: biochemical; details: 10 μM; wells without enzyme = 100% inhibition; read-out: HDAC6 inhibitory rate (%) (10 μM)
T1 construct: transducing full length HDAC6 gene into Sf-9 insect cells; GST; purchased SignalChem; host or cells: Sf-9 insect cells
T1 sequence (Q9UBN7 1-1215): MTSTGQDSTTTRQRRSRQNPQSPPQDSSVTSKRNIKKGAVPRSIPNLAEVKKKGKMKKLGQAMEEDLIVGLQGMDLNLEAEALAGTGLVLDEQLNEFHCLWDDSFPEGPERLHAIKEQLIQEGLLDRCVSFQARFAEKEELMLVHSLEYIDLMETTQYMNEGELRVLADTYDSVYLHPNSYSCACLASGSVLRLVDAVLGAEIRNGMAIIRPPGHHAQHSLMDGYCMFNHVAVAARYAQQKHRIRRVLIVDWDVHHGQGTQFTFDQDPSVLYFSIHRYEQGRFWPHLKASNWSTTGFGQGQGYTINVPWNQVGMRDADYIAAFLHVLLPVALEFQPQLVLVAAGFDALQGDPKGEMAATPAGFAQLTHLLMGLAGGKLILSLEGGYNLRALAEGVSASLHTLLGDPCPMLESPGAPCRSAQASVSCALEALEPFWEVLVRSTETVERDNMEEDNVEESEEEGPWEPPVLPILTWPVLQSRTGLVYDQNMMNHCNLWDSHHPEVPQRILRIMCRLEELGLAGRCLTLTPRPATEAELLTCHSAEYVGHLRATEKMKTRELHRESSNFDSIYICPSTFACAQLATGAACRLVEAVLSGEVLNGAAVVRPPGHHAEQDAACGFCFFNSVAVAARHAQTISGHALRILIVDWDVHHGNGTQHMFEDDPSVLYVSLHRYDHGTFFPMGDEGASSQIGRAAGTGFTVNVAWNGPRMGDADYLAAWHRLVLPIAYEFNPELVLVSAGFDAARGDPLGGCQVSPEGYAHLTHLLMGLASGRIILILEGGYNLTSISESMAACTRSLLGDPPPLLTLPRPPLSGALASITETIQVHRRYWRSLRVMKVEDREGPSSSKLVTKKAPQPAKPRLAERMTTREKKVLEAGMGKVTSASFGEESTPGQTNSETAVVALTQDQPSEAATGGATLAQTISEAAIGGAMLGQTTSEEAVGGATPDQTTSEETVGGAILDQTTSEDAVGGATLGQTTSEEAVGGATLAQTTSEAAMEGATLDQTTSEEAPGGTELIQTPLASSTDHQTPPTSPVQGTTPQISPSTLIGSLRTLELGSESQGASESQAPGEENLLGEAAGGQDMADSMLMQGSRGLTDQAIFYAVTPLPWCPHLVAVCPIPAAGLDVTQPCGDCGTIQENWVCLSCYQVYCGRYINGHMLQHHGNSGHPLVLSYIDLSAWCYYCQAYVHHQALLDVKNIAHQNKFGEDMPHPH
In short: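 Full-length human HDAC6 (GST-purified, Sf-9 expressed) preincubated with compound 60 min at room temperature in Tris-HCl pH 7.5 buffer with MgCl2, KCl, NaCl, glutathione, Tween-20. HDAC-Glo I/II substrate-developer then added, 20 min room temperature, luminescence read. Inhibition relative to no-enzyme wells as 100%.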

Row | Compound | inhibition at 10 µM [%]
1 | CC(C)(C(=O)N[C@H]1CCCC[C@H]1N1Cc2ccc(-c3nnc(C(F)F)o3)cc2C1=O)C(F)(F)F [Example 260, N-((1S,2R)-2-(6-(5-(difluoro-methyl)-1,3,4-oxadiazol-2-yl)-1-oxo-1,3-dihydro-2H-isoindol-2-yl)cyclohexyl)-3,3,3-trifluoro-2,2-dimethyl-propanamide] | 98
2 | COC(=O)N[C@H]1CCCC[C@H]1N1Cc2ccc(-c3nnc(C(F)F)o3)cc2C1=O [Example 262, methyl ((1S,2R)-2-(6-(5-(difluoromethyl)-1,3,4-oxadiazol-2-yl)-1-oxo-1,3-dihydro-2H-isoindol-2-yl)cyclohexyl)carbamate] | 98
3 | CC(=O)N(c1ccccn1)[C@@H]1CCCC[C@H]1N1Cc2ccc(-c3nnc(C(F)F)o3)cc2C1=O [Example 264, N-((1R,2R)-2-(6-(5-(difluoromethyl)-1,3,4-oxadiazol-2-yl)-1-oxo-1,3-dihydro-2H-isoindol-2-yl)cyclohexyl)-N-(pyridin-2-yl) acetamide] | 101
4 | O=C1c2cc(-c3nnc(C(F)F)o3)cc(F)c2CN1C[C@H]1COCCN1S(=O)(=O)c1cccc(F)c1 [Example 265, 6-(5-(difluoromethyl)-1,3,4-oxadiazol-2-yl)-4-fluoro-2-(((3S)-4-((3-fluorophenyl)-sulfonyl)morpholin-3-yl)-methyl)isoindolin-1-one] | 98
5 | CC(C)(OC(=O)N[C@@H]1CCCC[C@H]1N1Cc2ncc(-c3nnc(C(F)F)o3)cc2C1=O)C(F)(F)F [Example 268, 1,1,1-trifluoro-2-methylpropan-2-yl ((1R,2R)-2-(3-(5-(difluoromethyl)-1,3,4-oxadiazol-2-yl)-5-oxo-5,7-dihydro-6H-pyrrolo[3,4-b]pyridin-6-yl)cyclohexyl)carbamate] | 100
6 | O=C1CCCN1CC(c1ccccc1)N1Cc2ncc(-c3nnc(C(F)F)o3)cc2C1=O (centres unmarked) [Example 269, 3-(5-(difluoromethyl)-1,3,4-oxadiazol-2-yl)-6-(2-(2-oxopyrrolidin-1-yl)-1-phenylethyl)-6,7-dihydro-5H-pyrrolo[3,4-b]pyridin-5-one] | 99
7 | CC(C)(C)OC(=O)N1CCC[C@H]1CN1Cc2c(F)cc(-c3nnc(C(F)F)o3)cc2C1=O [Example 275, tert-butyl (2S)-2-((6-(5-(difluoromethyl)-1,3,4-oxadiazol-2-yl)-4-fluoro-1-oxo-1,3-dihydro-2H-isoindol-2-yl)methyl)-pyrrolidine-1-carboxylate] | 98
8 | O=C1c2cc(-c3nnc(C(F)F)o3)ccc2CN1c1ccccc1-c1ccccc1F [Example 277, 6-(5-(difluoromethyl)-1,3,4-oxadiazol-2-yl)-2-(2'-fluorobiphenyl-2-yl)isoindolin-1-one] | 97
9 | N#Cc1ccc(-c2ccccc2N2Cc3ccc(-c4nnc(C(F)F)o4)cc3C2=O)cc1 [Example 279, 2′-(6-(5-(difluoromethyl)-1,3,4-oxadiazol-2-yl)-1-oxo-1,3-dihydro-2H-isoindol-2-yl)-biphenyl-4-carbonitrile] | 89
10 | O=C1c2cc(-c3nnc(C(F)F)o3)ccc2CN1c1ccccc1-c1cccc(Cl)c1 [Example 283, 2-(3′-chlorobiphenyl-2-yl)-6-(5-(difluoromethyl)-1,3,4-oxadiazol-2-yl)isoindolin-1-one] | 99
11 | O=C1c2cc(-c3nnc(C(F)F)o3)ccc2CN1c1ccccc1-c1cc(F)cc(F)c1 [Example 284, 2-(3′,5′-difluorobiphenyl-2-yl)-6-(5-(difluoromethyl)-1,3,4-oxadiazol-2-yl)isoindolin-1-one] | 101

Results, then the molecule that gave them:

Row | inhibition at 10 µM [%] | Compound
12 | 99 | O=C1c2cc(-c3nnc(C(F)F)o3)ccc2CN1[C@@H]1CCCC[C@@H]1NC(=O)C(F)(F)C(F)(F)F [Example 261, N-((1S,2R)-2-(6-(5-(difluoro-methyl)-1,3,4-oxadiazol-2-yl)-1-oxo-1,3-dihydro-2H-isoindol-2-yl)cyclohexyl)-2,2,3,3,3-pentafluoropropan-amide]
13 | 99 | CC(C)(C)OC(=O)N1CCC[C@@H]1CN1Cc2c(F)cc(-c3nnc(C(F)F)o3)cc2C1=O [Example 263, tert-butyl (2R)-2-((6-(5-(difluoromethyl)-1,3,4-oxadiazol-2-yl)-4-fluoro-1-oxo-1,3-dihydro-2H-isoindol-2-yl)methyl)-pyrrolidine-1-carboxylate]
14 | 99 | COc1cccc(CN2Cc3ncc(-c4nnc(C(F)F)o4)cc3C2=O)c1 [Example 266, 3-(5-(difluoromethyl)-1,3,4-oxadiazol-2-yl)-6-(3-methoxybenzyl)-6,7-dihydro-5H-pyrrolo[3,4-b]-pyridin-5-one]
15 | 100 | N#Cc1cccc(-c2ccc(Cl)cc2N2Cc3ccc(-c4nnc(C(F)F)o4)cc3C2=O)c1 [Example 267, 4′-chloro-2′-(6-(5-(difluoro-methyl)-1,3,4-oxadiazol-2-yl)-1-oxo-1,3-dihydro-2H-isoindol-2-yl)biphenyl-3-carbonitrile]
16 | 99 | Cn1cc(-c2cc(Cl)ccc2N2Cc3ccc(-c4nnc(C(F)F)o4)cc3C2=O)cn1 [Example 270, 2-(4-chloro-2-(1-methyl-1H-pyrazol-4-yl)phenyl)-6-(5-(difluoromethyl)-1,3,4-oxadiazol-2-yl)-isoindolin-1-one]
17 | 100 | Cn1cc(-c2cc(F)ccc2N2Cc3ccc(-c4nnc(C(F)F)o4)cc3C2=O)cn1 [Example 271, 6-(5-(difluoromethyl)-1,3,4-oxadiazol-2-yl)-2-(4-fluoro-2-(1-methyl-1H-pyrazol-4-yl)phenyl)isoindolin-1-one]
18 | 100 | COc1ccc(CN2Cc3ncc(-c4nnc(C(F)F)o4)cc3C2=O)c(OC)c1 [Example 272, 3-(5-(difluoromethyl)-1,3,4-oxadiazol-2-yl)-6-(2,4-dimethoxybenzyl)-6,7-dihydro-5H-pyrrolo-[3,4-b]pyridin-5-one]
19 | 97 | O=C1c2cc(-c3nnc(C(F)F)o3)cnc2CN1Cc1cccc(F)c1 [Example 273, 3-(5-(difluoromethyl)-1,3,4-oxadiazol-2-yl)-6-(3-fluorobenzyl)-6,7-dihydro-5H-pyrrolo[3,4-b]pyridin-5-one]
20 | 99 | O=C1c2cc(-c3nnc(C(F)F)o3)cc(F)c2CN1C[C@H]1CCCN1S(=O)(=O)C1CC1 [Example 274, 2-(((2R)-1-(cyclopropyl-sulfonyl)pyrrolidin-2-yl)methyl)-6-(5-(difluoro-methyl)-1,3,4-oxadiazol-2-yl)-4-fluoroisoindolin-1-one]
21 | 98 | O=C1c2cc(-c3nnc(C(F)F)o3)ccc2CN1c1ccccc1-c1ccc(F)cc1 [Example 276, 6-(5-(difluoromethyl)-1,3,4-oxadiazol-2-yl)-2-(4′-fluorobiphenyl-2-yl)-isoindolin-1-one]
22 | 99 | O=C1c2cc(-c3nnc(C(F)F)o3)ccc2CN1c1ccccc1-c1cccc(F)c1 [Example 278, 6-(5-(difluoromethyl)-1,3,4-oxadiazol-2-yl)-2-(3′-fluorobiphenyl-2-yl)-isoindolin-1-one]
23 | 99 | CCc1ncccc1-c1ccccc1N1Cc2ccc(-c3nnc(C(F)F)o3)cc2C1=O [Example 280, 6-(5-(difluoromethyl)-1,3,4-oxadiazol-2-yl)-2-(2-(2-ethylpyridin-3-yl)phenyl)-isoindolin-1-one]
24 | 98 | O=C1c2cc(-c3nnc(C(F)F)o3)ccc2CN1c1ccccc1-c1ccccc1Cl [Example 281, 2-(2′-chlorobiphenyl-2-yl)-6-(5-(difluoromethyl)-1,3,4-oxadiazol-2-yl)isoindolin-1-one]
25 | 98 | O=C1c2cc(-c3nnc(C(F)F)o3)ccc2CN1c1ccccc1-c1ccc(Cl)cc1 [Example 282, 2-(4′-chlorobiphenyl-2-yl)-6-(5-(difluoromethyl)-1,3,4-oxadiazol-2-yl)isoindolin-1-one]
26 | 95 | O=C1c2cc(-c3nnc(C(F)F)o3)ccc2CN1c1ccccc1-c1ccc(C2CC2)cc1 [Example 285, 2-(4′-cyclopropylbiphenyl-2-yl)-6-(5-(difluoromethyl)-1,3,4-oxadiazol-2-yl)isoindolin-1-one]
